Measurements from patent US7078403B1, “Antiviral agents” (Biota Scientific Management Pty Ltd., priority 1999, dated 2006).
≈ marks a conversion by molar mass, not a printed value. Read-outs that look alike come from different tables or passages of the source.

Key:
Enterovirus 70 = test: Activity on Enterovirus 70 in mammalian cell culture assay; assay type: cell-based; settings: Enterovirus D
in vitro [1] = test: in vitro
HRV type 2 = test: Inhibition of viral cytopathic effect (CPE), visual scoring or neutral red, HRV type 2 in KB cells; assay type: cell-based, human rhinovirus; settings: for EC50: Enterovirus, HRV type 2 in KB cells, CPE inhibition, read-out: Activity on Rhinovirus Type 2 EC50; for Activity on Rhinovirus Type 2 SI: selectivity index = CC50 or MTC divided by EC50, HRV type 2, KB cells
Coxsackie A21 = test: Activity on Coxsackie A21 in mammalian cell culture assay; assay type: cell-based
[2] = tested on: Human Rhinovirus strains 1B, 3, 4, 5, 6, 8, 9, 11, 12, 13, 16, 17, 21, 25, 30, 32, 33, 38, 39, 40, 42, 43, 45, 48, 52, 54, 56, 57, 59, 60, 63, 67, 68, 69, 72 …; test: Standard CPE reduction assay against a panel of Human Rhinovirus strains; assay type: cell-based; settings: nearly all HRV strains tested
[3] = tested on: Enterovirus strains Poliovirus 2, Echoviruses 2, 3, 9, 21 and 30 and Coxsackie B3; assay type: cell-based; settings: all Enterovirus strains tested
in vitro [4] = settings: human
in vitro [5] = test: in vitro; remark: listed apart in the source
HRV-2 = test: Time of addition study, CPE inhibition of HRV-2 in KB cells; assay type: cell-based, human rhinovirus; settings: Rhinovirus A, read-out: EC50 (visual assay)
[6] = tested on: human embryo lung (MRC-5) cells
HRV type 1A = test: Inhibition of viral cytopathic effect (CPE), visual scoring or neutral red, HRV type 1A in MRC-5 cells; assay type: cell-based, human rhinovirus; settings: for EC50: Enterovirus, MRC5, HRV type 1A in MRC-5 cells, CPE inhibition, read-out: Activity on Rhinovirus Type 1A EC50; for Activity on Rhinovirus Type 1A SI: selectivity index = CC50 or MTC divided by EC50, HRV type 1A, MRC-5 cells
[7] = tested on: human embryo lung (MRC-5) cells; test: Cytotoxicity (CC50 or MTC) in uninfected MRC-5 cells; settings: unit not given
[8] = mammalian cell culture (cell line not stated)

Q: What does the source list for CCO/N=C/c1ccc(OCCC2CCN(c3ccc(Cl)nn3)CC2)cc1 [Compound 1, 4-{2-[1-(6-Chloro-3-pyridazinyl)4-piperidinyl]ethoxy}benzaldehyde O-ethyloxime]?
A: EC50 (Enterovirus 70): 0.03 mg/L (≈ 0.0771 µM); CC50 (in vitro [1]): > 50 mg/L; EC50 (HRV type 2): < 0.001 mg/L; Activity on Rhinovirus Type 2 SI (HRV type 2): >1000; EC50 (Coxsackie A21): < 0.000156 mg/L; Inhibitory activity compared with Pirodavir [2]: superior activity to Pirodavir; Inhibitory activity compared with Pirodavir [3]: superior activity to Pirodavir; CC50 (in vitro [4]): > 1 mg/L; CC50 (in vitro [5]): > 50 mg/L

Q: What does the source list for CCOC(=O)c1ccc(OCCC2CCN(c3ccc(C)nn3)CC2)cc1 [Pirodavir, ethyl 4-[2-[1-(6-methyl-3-pyridazinyl)-4-piperidinyl]-ethoxy]benzoate]?
A: EC50 (HRV type 2): 0.003 mg/L (≈ 0.00812 µM); Activity on Rhinovirus Type 2 SI (HRV type 2): >300; EC50 (HRV-2; HRV2, time of addition 0 hr): 0.004 mg/L (≈ 0.0108 µM); EC50 (HRV-2; HRV2, time of addition 1 hr post-virus): 0.1 mg/L (≈ 0.271 µM); EC50 (HRV-2; HRV2, time of addition 2 hr post-virus): > 0.1 mg/L; EC50 (HRV-2; HRV2, time of addition 4 hr post-virus): > 0.1 mg/L; EC50 (HRV-2; HRV2, time of addition 6 hr post-virus): > 0.1 mg/L; EC50 (HRV-2; HRV2, time of addition 8 hr post-virus): > 0.1 mg/L; EC50 (HRV-2; HRV2, time of addition 24 hr post-virus): > 0.1 mg/L; EC50 (HRV-2; HRV2, time of addition −1 hr (pre-treatment)): 0.023 mg/L (≈ 0.0623 µM); CC50 (in vitro [4]): > 1 mg/L; Activity on Rhinovirus Type 1A MTC [6]: >10.00; EC50 (HRV type 1A): 0.02 mg/L (≈ 0.0541 µM); Activity on Rhinovirus Type 1A SI (HRV type 1A): 555.74

Q: Which EC50 (Enterovirus 70) does the source give for NC(=O)c1ncn([C@@H]2O[C@H](CO)[C@@H](O)[C@H]2O)n1 [Ribavirin] here?
A: Its EC50 is over 100 mg/L.

Q: What about the CC50 (in vitro [1]; [8]) of the same compound?
A: The CC50 was over 100 mg/L.

Q: And the EC50 (Coxsackie A21)?
A: The EC50 was over 100 mg/L.

Q: What about the “Activity on Rhinovirus Type 1A MTC” value [7] of the same compound?
A: Its value is 98.3.

Q: What about the EC50 (HRV type 1A) of the same compound?
A: Its EC50 is 1.93 mg/L (≈ 7.9 µM).

Q: And the “Activity on Rhinovirus Type 1A SI” value (HRV type 1A)?
A: Its value is 51.03.

Q: And the CC50 (in vitro [5]; [8])?
A: Its CC50 is over 100 mg/L.
